Laboratory results: patent publication US11987568B2, “Allosteric inhibitor of WEE1 kinase” (H. LEE MOFFITT CANCER CENTER AND RESEARCH INSTITUTE, INC., priority 2018, dated 2024)
Values after ≈ are worked out from the molar mass of the structure shown. Values joined by “and” are separate entries in the source; they are usually repeats but may differ in a detail not shown here. Equal entries are not always repeated. Where two headings read alike, the source gives them in different places.

Assays:
LAPC4 cells = assay: LAPC4 cell proliferation, trypan blue exclusion assay; format: cell-based; conditions: Homo sapiens, 96 hr, viable cells by trypan blue exclusion
Description: FIGS. 2A-2B show identification of 3 distinct types of inhibitors. […] In addition, the lysates were also subjected to by immunoblotting with […]-Cdc2 or actin antibodies (middle and bottom panels). […] The number vehicle treated cells were used as control and percent of surviving cells were plotted. […] The number of vehicle treated cells were used as control and percent of surviving cells were plotted. […] The number vehicle treated cells were used as control and percent of surviving cells were plotted. 7 of these epigenetic inhibitors in various assays such as cell proliferation assay, an in vitro kinase assay were performed and WEE1 autophosphorylation in vivo was determined. Prostate cancer derived LAPC4 cells were treated with inhibitors and its effect on cell proliferation was examined.

WEE1 = WEE1 (Homo sapiens, UniProt P30291); assay: Endogenous WEE1 auto-phosphorylation in cells (WEE1 IP, pTyr immunoblot); format: cell-based; conditions: LNCaP cells, 10 μM overnight (FIG. 3B)
Protocol: The reaction mix was then subjected to immunoprecipitated with WEE1 antibodies, followed by immunoblotting with pTyr antibodies (top panel). As a control, purified ACK1 protein was incubated in the reaction buffer containing ATP, in presence of 100 nM epigenetic inhibitors. The reaction mix was then subjected to immunoprecipitated with ACK1 antibodies, followed by immunoblotting with pTyr antibodies (bottom panel). […] In addition, the lysates were also subjected to immunoblotting with actin antibodies (bottom panel). […] In addition, the lysates were also subjected to immunoblotting with actin antibodies (bottom panel). […] In addition, the lysates were also subjected to immunoblotting with actin antibodies (bottom panel). To determine direct binding of these compounds causing WEE1 inhibition, a full length WEE1 kinase protein was incubated with the compounds. […] These inhibitors were further validated by assessing their ability to suppress endogenous WEEE activity; LNCaP cells were treated with 10 μM of these compounds overnight.

[1] = system: IDH2 mRNA in melanoma cell line WM66; assay: IDH2 mRNA qRT-PCR in WM66 cells; format: cell-based; conditions: 10 uM, 16 hr
Protocol: (§1) WM66 cells (FIG. 5A) or primary melanocytes (FIG. 5B) were treated with vehicle or compounds (10 uM) for 16 hr. Total RNA was isolated followed by qRT-PCR with IDH2 and actin primers. FIG. 5C indicated cells were treated with vehicle or compounds (10 uM) for 16 hr. Total genomic DNA was isolated, slot-blotted onto a nitrocellulose membrane, followed by blotting with 5-hmC antibodies (top panels). Blots were also stained with methylene blue, to determine equal loading of DNA (bottom panel).
(§2) Identification of 55152 (18-B3) scaffold as a WEE1 epigenetic inhibitor: Two major hits, 367416 (16-G9) and 55152 (18-B3) were taken up for further characterization. […] Accordingly, melanoma cell line WM66 and primary melanocytes were treated with inhibitors and IDH2 mRNA levels were measure by real time PCR.

5hmC levels = assay: 5-hmC slot blot of genomic DNA; format: cell-based; conditions: 10 uM, 16 hr
Protocol: as §1, §2

LogD = format: physicochemical; conditions: pH 7.4
Protocol: (§3) ADME studies with 55152 (18-B3) and 367416 (16-G9): The solubility, microsome stability and plasma stability of these two compounds were also determined (Table 2).

Solubility = format: physicochemical
Protocol: as §3

[2] = Microsome Stability, Human; format: in vitro ADME
Protocol: as §3

[3] = Microsome Stability, Mouse; format: in vitro ADME
Protocol: as §3

Plasma Stability, Human = format: in vitro ADME
Protocol: as §3

Plasma Stability, Mouse = format: in vitro ADME
Protocol: as §3

Wee1 KD = target: T1, Wee1 KD (Homo sapiens, UniProt P30291); assay: Differential Scanning Fluorimetry (DSF), Wee1 KD; format: binding; conditions: kinase domain purified from HEK293T cells
T1 construct: WEE1 & WEE2 (as control) kinase domains from mammalian cells (HEK293T cells) were purified
Protocol: (§4) Binding study of WEE1 epigenetic inhibitors: To identify the precise binding region/domain of WEE1 epigenetic inhibitors, WEE1 & WEE2 (as control) kinase domains from mammalian cells (HEK293T cells) were purified. The binding of inhibitors was assessed using Differential Scanning Fluorimetry (DSF).

Wee2 KD = target: T2, Wee2 KD (Homo sapiens, UniProt P0C1S8); assay: Differential Scanning Fluorimetry (DSF), Wee2 KD; format: binding; conditions: kinase domain purified from HEK293T cells
T2 construct: WEE1 & WEE2 (as control) kinase domains from mammalian cells (HEK293T cells) were purified
Protocol: as §4

[4] = target: T3, full length human WEE1 kinase (Homo sapiens, UniProt P30291); assay: In vitro kinase assay, purified full length WEE1, pTyr immunoblot; format: biochemical; parameters: a full length WEE1 kinase protein was incubated with the compounds; conditions: purified full length WEE1, 100 nM (FIG. 3A, 4A)
Protocol: The reaction mix was then subjected to immunoprecipitated with WEE1 antibodies, followed by immunoblotting with pTyr antibodies (top panel). As a control, purified ACK1 protein was incubated in the reaction buffer containing ATP, in presence of 100 nM epigenetic inhibitors. The reaction mix was then subjected to immunoprecipitated with ACK1 antibodies, followed by immunoblotting with pTyr antibodies (bottom panel). […] In addition, the lysates were also subjected to immunoblotting with actin antibodies (bottom panel). […] In addition, the lysates were also subjected to immunoblotting with actin antibodies (bottom panel).
FIGS. 4A-4B show structures of ‘hits’ identified in WEE1 epigenetic inhibitor screen. […] The reaction mix was then subjected to immunoprecipitated with WEE1 antibodies, followed by immunoblotting with pTyr antibodies. […] In addition, the lysates were also subjected to immunoblotting with actin antibodies (bottom panel).
To determine direct binding of these compounds causing WEE1 inhibition, a full length WEE1 kinase protein was incubated with the compounds. […] As a control, purified ACK1 kinase was also incubated with these compounds, none of these compounds were able to inhibit ACK1 kinase activity. These inhibitors were further validated by assessing their ability to suppress endogenous WEEE activity; LNCaP cells were treated with 10 μM of these compounds overnight.

[5] = target: T3, full length human WEE1 kinase; assay: ELISA based assay: WEE1 phosphorylation of biotinylated H2B peptide spanning Tyr37; format: biochemical; parameters: A full length human WEE1 kinase that was enzymatically active was purified from insect cell; conditions: Table 1; several values in a cell are repeat determinations
Description: Designing of a Novel inhibitor Screening Platform: […] A full length human WEE1 kinase that was enzymatically active was purified from insect cell. […] NCI diversity set compound library ( 1600 compounds) was used for the screening.

T3 sequence (P30291 whole entry): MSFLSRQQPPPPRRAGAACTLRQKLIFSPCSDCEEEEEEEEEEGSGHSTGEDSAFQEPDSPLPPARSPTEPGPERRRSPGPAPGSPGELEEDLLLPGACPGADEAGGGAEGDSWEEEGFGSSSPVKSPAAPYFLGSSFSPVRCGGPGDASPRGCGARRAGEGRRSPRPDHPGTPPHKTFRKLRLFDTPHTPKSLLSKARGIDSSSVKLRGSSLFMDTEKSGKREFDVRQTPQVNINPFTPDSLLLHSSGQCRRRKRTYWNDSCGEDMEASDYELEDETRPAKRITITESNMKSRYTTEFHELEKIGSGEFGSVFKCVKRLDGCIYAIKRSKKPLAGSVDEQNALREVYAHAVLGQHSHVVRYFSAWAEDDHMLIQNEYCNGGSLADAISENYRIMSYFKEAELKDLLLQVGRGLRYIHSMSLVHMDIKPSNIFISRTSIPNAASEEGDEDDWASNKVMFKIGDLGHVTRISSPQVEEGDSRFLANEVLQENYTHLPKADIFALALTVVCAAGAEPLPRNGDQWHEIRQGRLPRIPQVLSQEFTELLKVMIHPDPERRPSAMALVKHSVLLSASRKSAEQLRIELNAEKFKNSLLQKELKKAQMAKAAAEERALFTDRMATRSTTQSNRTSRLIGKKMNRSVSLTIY
T1 sequence (P30291 299-569): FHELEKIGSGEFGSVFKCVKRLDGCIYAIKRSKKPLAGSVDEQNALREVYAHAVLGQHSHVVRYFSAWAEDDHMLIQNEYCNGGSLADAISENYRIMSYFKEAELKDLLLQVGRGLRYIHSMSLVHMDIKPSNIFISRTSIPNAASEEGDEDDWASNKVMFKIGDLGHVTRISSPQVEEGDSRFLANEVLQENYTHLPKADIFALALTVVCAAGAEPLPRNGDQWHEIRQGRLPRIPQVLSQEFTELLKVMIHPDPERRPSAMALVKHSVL
T2 sequence (P0C1S8 212-486): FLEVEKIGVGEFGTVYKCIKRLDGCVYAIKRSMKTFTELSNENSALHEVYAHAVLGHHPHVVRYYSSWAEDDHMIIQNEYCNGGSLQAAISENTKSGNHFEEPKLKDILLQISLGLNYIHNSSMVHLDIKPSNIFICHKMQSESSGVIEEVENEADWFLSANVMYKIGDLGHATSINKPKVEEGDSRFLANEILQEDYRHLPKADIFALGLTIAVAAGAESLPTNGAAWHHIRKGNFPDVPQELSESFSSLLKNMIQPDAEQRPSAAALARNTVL
WEE1, sequence (P30291 whole entry): as the sequence (P30291 whole entry) above

## Nc1ccc(NC(=O)c2ccc(C(=O)Nc3ccc(N)cc3)cc2)cc1 [SG5-061, N^1,N^4-bis(4-aminophenyl)terephthalamide]
LAPC4 cells
  IC50: 1 µM
WEE1
  WEE1 auto-phosphorylation: significant loss of WEE1 auto-phosphorylation
[1]
  IDH2 mRNA levels: Significant increase in IDH2 mRNA levels
5hmC levels
  5hmC levels: Corresponding increase in 5hmC levels
LogD
  logD: 0.98
Solubility; aqueous buffer, pH 5.0, read-out: Solubility (ug/mL) pH 5.0
  solubility: 0.13 µg/mL (≈ 0.375 µM)
Solubility; pH 6.2, aqueous buffer, read-out: Solubility (ug/mL) pH 6.2
  solubility: 0.22 µg/mL (≈ 0.635 µM)
Solubility; pH 7.4, aqueous buffer, read-out: Solubility (ug/mL) pH 7.4
  solubility: 0.15 µg/mL (≈ 0.433 µM)
[2]
  Microsome Stability % remaining @ 1 hr Human: 64.56%
[3]
  Microsome Stability % remaining @ 1 hr Mouse: 95.21%
Plasma Stability, Human
  Plasma Stability % remaining @ 3 hrs Human: 58.57%
Plasma Stability, Mouse
  Plasma Stability % remaining @ 3 hrs Mouse: 50.76%
Wee1 KD
  ΔTm for Wee1 KD (° C.): 0.5 °C
Wee1 KD; listed as 55152 (18-B3)
  ΔTm for Wee1 KD (° C.): 0.8 °C
Wee2 KD
  ΔTm for Wee2 KD (° C.): 0.1 °C
Wee2 KD; listed as 55152 (18-B3)
  ΔTm for Wee2 KD (° C.): 1.1 °C
[4]; listed as 18-B3
  WEE1 kinase activity (pTyr immunoblot): suppresses kinase activation better than 16-G9
[4]; listed as 55152 (18-B3)
  WEE1 kinase activity (pTyr immunoblot): significant loss of WEE1 kinase activity
[5]
  ELISA Inhibition (%): 112% and 81% and 82% and 87% and 83% and 100% and 106%
